From patent US20230040021A1 (priority 2019, published 2023)

Columns and labels:
[1] = tested on: HBsAg antigen-specific IFN-γ; parameters: species or system C57BL/6(N) mice; conditions: mouse, in vivo
[2] = tested on: HBcAg antigen-specific IFN-γ; parameters: species or system C57BL/6(N) mice; conditions: mouse, in vivo
[3] = tested on: herpes gE antigen-specific IFN-γ; conditions: CpG T1 10 + saponin 5 + gE 5 μg/mouse; FIG. 15
Procedure: Experimental steps: on Day 7 after the immunization of mice, the spleen lymphocytes were prepared according to a conventional method, and the details were as follows: the spleens were taken aseptically by being cut with sterile forceps and scissors, and placed in a 70 μm cell strainer, which was placed in a plate containing 2 ml of pre-chilled 2% FBS (purchased from GIBCO)-PBS; the spleens were ground using a grinding rod, and the spleen cells entered the plate through the meshes to obtain a cell suspension, and then the suspension was filtered by a 40 μm cell strainer (purchased from BD) and put into a 50 ml sterile centrifuge tube by using a Pasteur pipet; it was centrifuged at 500×g at 4° C. for 5 min; the supernatant was discarded, and then 2 ml of 1×erythrocyte disruption agent (purchased from BD) was added to re-suspend the cells, and the resultant was allowed to stand for 5 min at 4° C., protected from light to disrupt the red blood cells; 10 ml of 2% FBS-PBS was added to terminate the erythrocyte disruption reaction; the resultant was centrifuged at 500×g at 4° C. for 5 min, the supernatant was discarded, and then 5 ml of 2% FBS-PBS was added to re-suspend the cells for later use.
C57BL/6(N) mice, female, 5 weeks old, 48 mice, purchased from Shanghai SLRC Laboratory Animal Co. Ltd.
2) QS-21 (CAS: NO. […]

| Substance | immune effect: induced production level of HBsAg-specific IFN-γ [1] | immune effect: induced production level of HBcAg-specific IFN-γ [2] | induced production level of gE-specific IFN-γ [3] |
| --- | --- | --- | --- |
| TCGACGTTCGTCGTTCGTCGTTC (SEQ ID NO: 9) [CpG 684] | superior to the CpG adjuvants of type A and the CpG adjuvants of type C | superior to the CpG adjuvants of type A and the CpG adjuvants of type C | – |
| TCGTCGTTTTGTCGTTTTGTCGTT (SEQ ID NO: 4) [CpG 7909] | superior to the CpG adjuvants of type A and the CpG adjuvants of type C | superior to the CpG adjuvants of type A and the CpG adjuvants of type C | – |
| TGTCGTCGTCGTTTGTCGTTTGTCGTT (SEQ ID NO: 11) [CPG D2] | lower than those induced by the CpG adjuvants of type A and the CpG adjuvants of type C | lower than those induced by the CpG adjuvants of type A and the CpG adjuvants of type C | – |
| TCCATGACGTTCCTGACGTT (SEQ ID NO: 5) [CpG 1826] | superior to the CpG adjuvants of type A and the CpG adjuvants of type C | superior to the CpG adjuvants of type A and the CpG adjuvants of type C | – |
| TGACTGTGAACGTTCGAGATGA (SEQ ID NO: 3) [CpG 1018] | superior to the CpG adjuvants of type A and the CpG adjuvants of type C | superior to the CpG adjuvants of type A and the CpG adjuvants of type C | – |
| QS-21 [QS21] | – | – | the best effect |
